The target of this assay is T1, Yak1 (Candida albicans, UniProt A0A1D8PH81).
T1 construct: full-length, C-terminal 6xHis-3xFlag tag kept; both YAK1 alleles tagged and overexpressed in C. albicans; native purification on anti-Flag gel, eluted with 3xFlag peptide
Put plainly: ADP-Glo kinase assay with DYRKtide. The class given is biochemical. The following applies: 10 µM ATP, 0.2 mg/mL DYRKtide, 2.5 mM MgCl2, HEPES-NaOH pH 7.2, 40 min; ATP site proposed by docking only.

T1 sequence (A0A1D8PH81 entry or part of it): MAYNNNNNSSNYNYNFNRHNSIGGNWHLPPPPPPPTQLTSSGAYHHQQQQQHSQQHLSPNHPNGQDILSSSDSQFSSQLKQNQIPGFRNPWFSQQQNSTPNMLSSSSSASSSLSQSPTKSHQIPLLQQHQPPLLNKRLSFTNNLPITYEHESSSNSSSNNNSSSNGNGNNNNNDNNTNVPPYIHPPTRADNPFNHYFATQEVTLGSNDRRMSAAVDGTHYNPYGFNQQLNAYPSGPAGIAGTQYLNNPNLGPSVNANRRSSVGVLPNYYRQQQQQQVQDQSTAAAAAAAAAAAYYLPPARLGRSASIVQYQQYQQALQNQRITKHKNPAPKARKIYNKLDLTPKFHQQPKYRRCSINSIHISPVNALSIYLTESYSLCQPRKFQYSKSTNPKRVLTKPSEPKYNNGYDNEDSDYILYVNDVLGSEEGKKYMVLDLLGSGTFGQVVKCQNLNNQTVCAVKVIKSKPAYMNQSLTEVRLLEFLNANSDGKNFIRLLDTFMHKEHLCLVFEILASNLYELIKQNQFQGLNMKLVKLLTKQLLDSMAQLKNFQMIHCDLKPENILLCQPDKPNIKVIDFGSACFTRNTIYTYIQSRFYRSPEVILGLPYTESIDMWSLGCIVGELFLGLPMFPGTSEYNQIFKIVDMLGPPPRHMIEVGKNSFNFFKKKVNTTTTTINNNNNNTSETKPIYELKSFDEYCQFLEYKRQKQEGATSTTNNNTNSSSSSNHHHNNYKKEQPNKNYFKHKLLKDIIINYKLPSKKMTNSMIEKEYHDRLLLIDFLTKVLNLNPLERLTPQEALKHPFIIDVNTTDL

For `CCOC(=O)c1nccc2c1[nH]c1ccccc12` [1-ECBC, 1-ethoxycarbonyl-β-carboline], the concentration-dependent inhibition is 1-ECBC and harmine, a known β-carboline scaffold DYRK inhibitor, exhibited concentration-dependent inhibition of Yak1 activity.

As for `COc1ccc2c(c1)[nH]c1c(C)nccc12` [harmine], the concentration-dependent inhibition was 1-ECBC and harmine inhibit Yak1 activity in a concentration-dependent manner.

The record behind these values is paper PMC8536679, “A small molecule produced by Lactobacillus species blocks Candida albicans filamentation by inhibiting a DYRK1-family kinase” (Nature Communications, 2021).
